Here are results for 17 compounds from patent publication US20250163069A1, “HETEROCYCLIC DERIVATIVE, AND PHARMACEUTICAL COMPOSITION AND APPLICATION THEREOF” (priority 2022, published 2025).

Like-named read-outs stand apart in the source and are kept apart here.

One data set deals with HCMV. Put plainly: In vitro anti-HCMV activity, GFP reporter virus in MRC5 cells. In kind it is cell-based, Human Cytomegalovirus. Here is the method: (§1) Experimental method for in vitro biological activity study: The HCMV virus used in this experiment contains a reporter gene GFP. The inhibitory activity of the compounds against HCMV was detected by detecting the expression of GFP, and the cytotoxicity was also determined; the compounds were tested at 8 concentrations, with 3-fold gradient dilution, and double wells. MRC5 cells were seeded in microtiter plates at a certain density and cultured overnight at 37° C. in 5% CO2. The compounds and viruses were added the next day. […] The final concentration of DMSO in the cell culture medium was 0.5%, the cells were cultured at 37° C. in 5% CO2 for 7 days, the fluorescence value of each well was detected using Acumen, and the original data were used to calculate the antiviral activity of the compounds. The cytotoxicity experiment was the same as the antiviral experiment, but without viral infection; CCK-8 reagent was used to detect cell viability, and the original data were used to calculate the cytotoxicity of the compounds. Software GraphPad Prism was used to analyze the dose-response curves of the compounds and calculate the EC50 and CC50 values (see Table 1 for the results).

The nature of the next data set: in vitro. Type of data set: cell-based. The conditions noted are these: human. As to the method: as §1, with “compounds.” for “compounds. Software GraphPad Prism was used to analyze the dose-response curves of the compounds and calculate the EC50 and CC50 values (see Table 1 for the results).”
The nature of data set [1]: Hepatocyte metabolic stability test. Type of data set: in vitro ADME, Human. The conditions noted are these: for half-life at 1 μM / hepatocyte CLint at 1 μM: tested compounds 1 μM; for CLint scaled at 1 μM: Human, scaled with 120 × 10^6 cells/g liver and 21 g liver/kg, read-out: CLint, hepatic. As to the method:
(§2) Test method: The compounds to be tested will be co-incubated with human hepatocyte suspension at a concentration of 1 μM. At different time points, ice acetonitrile containing internal standard was added to the system to terminate the reaction, after vortexing and centrifugation, the supernatant was taken, and the test compounds in the supernatant were analyzed by LC-MS/MS method. The in vitro intrinsic clearance rate was calculated according to the clearance rate constant of the tested compounds in the incubation system. 7-ethoxycoumarin and 7-hydroxycoumarin were used as positive controls, and the blank culture medium incubation group without hepatocytes was used as negative control.
(§3) Data analysis: The ratio of the peak areas of the analyte/internal standard (Aanalyte/AIS) was obtained by the instrument, and the remaining percentage (% Control) was calculated from the ratio of Aanalyste/AIS in the sample at non-zero time point to that at the zero time point. Ln (% Control) was plotted against incubation time and linearly fitted. The clearance constant (k, min^−1), clearance half-life (T1/2, min), and in vitro intrinsic clearance rate (CLint, hepatocyte, μL/min/10^6 cells) of the tested compounds were calculated using the following equation.
(§4) CLint,hepatic (mL/min/kg) refers to the inherent clearance rate of liver in vivo.

Data set [2] deals with human hepatocyte suspension. As to the kind of experiment: Hepatocyte metabolic stability test. In kind it is in vitro ADME. Conditions: for k: Human hepatocytes 1.0 × 10^6 cells/mL, tested compounds 1 μM, positive control 3 μM. As to the method:
as §2, §3, §4

The conditions of data set [3]: cited from earlier work.
A further data set has as its system CMV virus. Conditions: after 28 days of treatment; cited from earlier work.
In another data set the test system is MRC5 cells. Put plainly: in vitro. In kind it is cell-based. The conditions noted are these: human, 7 days. As to the method:
as §1, with “compounds.” for “compounds. Software GraphPad Prism was used to analyze the dose-response curves of the compounds and calculate the EC50 and CC50 values (see Table 1 for the results).”

[4] abbreviates: Human betaherpesvirus 5, 168 h, HCMV with GFP reporter, MRC5 cells, 7 days, read-out: EC50.
Where [5] appears, read: Human betaherpesvirus 5, MRC5, Table 1, read-out: activity in inhibiting HCMV.
The mark [6] stands for this setting: hepatocyte suspension, Human hepatocytes 1.0 × 10^6 cells/mL, positive control 3 μM.
[7] abbreviates: Human hepatocytes 1.0 × 10^6 cells/mL, positive control 3 μM.

Take `COc1cccc(N2CCN(C3=Nc4c(F)cccc4[C@H](CC(=O)O)N3c3cc(C(F)(F)F)ccc3OC)C[C@H]2C)c1` [Compound I-25]: the EC50 in the data set with HCMV (setting [4]) is 0.17 nM. Moreover, the EC50 in the data set with HCMV (setting [5]) was less than 1 nM. In the data set “in vitro”, this compound yielded a CC50 at 7 days greater than 50 µM. In data set [1] (setting [6]), this compound gave a half-life at 1 μM of 4500 min and a hepatocyte CLint at 1 μM of 0.154 µL/min/1e6 cells. The CLint scaled at 1 μM in data set [1] (hepatocyte suspension) was determined as 0.388 mL/min/kg. The compound further returned a k in data set [2] of 0.000154 min⁻¹. Besides, the “metabolic stability of human hepatocytes compared with letermovir” value in data set [2] (human hepatocytes) is “better metabolic stability”.
With `COc1cccc(N2CCN(C3=Nc4c(F)cccc4[C@H](CC(=O)OCOC(C)=O)N3c3cc(C(F)(F)F)ccc3OC)CC2)c1` [Compound I-8], the EC50 in the data set on HCMV (setting [4]) worked out at 1.47 nM. The CC50 at 7 days in the data set “in vitro” was greater than 50 µM.
In data set [1] (setting [6]), `COc1cccc(N2CCN(C3=Nc4c(F)cccc4[C@H](CC(=O)O)N3c3cc(C(F)(F)F)ccc3OC)CC2)c1` [Letermovir, letermovir] gave a half-life at 1 μM of 316 min and a hepatocyte CLint at 1 μM of 2.2 µL/min/1e6 cells. For the same compound, in data set [1] (hepatocyte suspension), the CLint scaled at 1 μM came to 5.53 mL/min/kg. Besides, the k in data set [2] was 0.0022 min⁻¹. Moreover, the bioavailability entry in data set [3] (hematopoietic cell transplant (HCT) recipients, letermovir alone) is listed as “about 37%”. Also, in data set [3] (with cyclosporin), the bioavailability is reported as 85%. Further, in the data set on CMV virus, the “CMV virus detection in the patient” value is “no CMV virus was detected”.
With `COC(=O)OCOC(=O)C[C@H]1c2cccc(F)c2N=C(N2CCN(c3cccc(OC)c3)CC2)N1c1cc(C(F)(F)F)ccc1OC` [Compound I-5], the EC50 with HCMV (setting [4]) was 2.62 nM. The CC50 at 7 days in “in vitro” was greater than 50 µM.
On to `COc1cc(N2CCN(C3=Nc4c(F)cccc4C(CC(=O)OCOC(C)=O)N3c3cc(C(F)(F)F)ccc3OC)CC2C)ccn1` (stereo not shown) [Compound I-49], for which the figures for the EC50 with HCMV (setting [4]) and with HCMV (setting [5]) were 0.46 nM and less than 1 nM, respectively. In “in vitro”, this compound registered a CC50 at 7 days greater than 50 µM.
As to `CCOc1ccc2ccc(=O)oc2c1` [7-ethoxycoumarin], in data set [1] (setting [6]), the half-life at 1 μM stood at 19.9 min and the hepatocyte CLint at 1 μM turned out to be 34.8 µL/min/1e6 cells. The CLint scaled at 1 μM in data set [1] (hepatocyte suspension) is 87.7 mL/min/kg. This compound also showed a k in data set [2] of 0.0348 min⁻¹.
For the compound `O=c1ccc2ccc(O)cc2o1` [7-hydroxycoumarin], in data set [1] (setting [7]), the half-life was 17.3 min and the intrinsic clearance (hepatocyte CLint) at 1 μM turned out to be 40.1 µL/min/1e6 cells. In data set [1] (hepatocytes), the CLint scaled at 1 μM was 101 mL/min/kg. In data set [2], the k was found to be 0.0401 min⁻¹.
As for `COc1cccc(N2CCN(C3=Nc4c(F)cccc4[C@H](CC(=O)OCOC(C)=O)N3c3cc(C(F)(F)F)ccc3OC)C[C@H]2C)c1` [Compound I-33], the EC50 was 0.06 nM in the data set on HCMV (setting [4]) and less than 1 nM in the data set with HCMV (setting [5]). This compound also had a CC50 at 7 days in “in vitro” greater than 50 µM.
In the case of `COc1cccc(N2CCN(C3=Nc4c(F)cccc4[C@H](CC(=O)O)N3c3cc(C(F)(F)F)ccc3OC)CC2)c1` (racemic) [Letermovir (racemic), letermovir (racemic), reference compound], the EC50 with HCMV (HCMV with GFP reporter, MRC5 cells, 7 days, read-out: EC50) was determined as 3.92 nM.
Regarding `COc1cccc(N2CCN(C3=Nc4c(F)cccc4C(CC(=O)OCc4oc(=O)oc4C)N3c3cc(C(F)(F)F)ccc3OC)C[C@H]2C)c1` (single isomer, unassigned) [Compound I-41], the EC50 was 0.15 nM in the data set with HCMV (setting [4]) and less than 1 nM in the data set on HCMV (setting [5]). In the data set “in vitro”, this compound gave a CC50 at 7 days of 39.3 µM.
For `COc1cc(N2CCN(C3=Nc4c(F)cccc4[C@H](CC(=O)O)N3c3cc(C(F)(F)F)ccc3OC)C[C@H]2C)ccn1` [Compound I-26] the same measures were 0.26 nM, less than 1 nM and greater than 50 µM.
On to `COc1cccc(N2CCN(C3=Nc4c(F)cccc4[C@H](CC(=O)OCOC(=O)C(C)(C)C)N3c3cc(C(F)(F)F)ccc3OC)CC2)c1` [Compound I-13], for which the EC50 in the data set with HCMV (setting [4]) worked out at 2.76 nM. In “in vitro”, this compound gave a CC50 at 7 days greater than 50 µM.
`COc1cccc(N2CCN(C3=Nc4c(F)cccc4[C@H](CC(=O)OCc4oc(=O)oc4C)N3c3cc(C(F)(F)F)ccc3OC)CC2)c1` [Compound I-17]: the EC50 in the data set with HCMV (setting [4]) was 1.52 nM. The same compound registered a CC50 in the data set with MRC5 cells of 43.5 µM.
For `COc1cccc(N2CC3CCC(C2)N3C2=Nc3c(F)cccc3C(CC(=O)O)N2c2cc(C(F)(F)F)ccc2OC)c1` (stereo not shown) [Compound I-19], in the data set on HCMV (setting [4]), the EC50 was determined as 2.81 nM. This compound yielded a CC50 at 7 days in the data set “in vitro” of 23.8 µM.
On to `COc1cc(N2CCN(C3=Nc4c(F)cccc4C(CC(=O)O)N3c3cc(C(F)(F)F)ccc3OC)C[C@H]2C)ccn1` (stereo partly shown) [Compound I-24], for which the values for the EC50 with HCMV (setting [4]) and in the data set on HCMV (setting [5]) were 0.46 nM and less than 1 nM, respectively. The compound also yielded a CC50 at 7 days in “in vitro” greater than 50 µM.
For `COc1cccc(N2CCN(C3=Nc4c(F)cccc4C(CC(=O)O)N3c3cc(C(F)(F)F)ccc3OC)C[C@H]2C)c1` (stereo partly shown) [Compound I-23] the same measures were 0.28 nM, less than 1 nM and greater than 50 µM.
For `COc1cc(N2CCN(C3=Nc4c(F)cccc4[C@H](CC(=O)OCOC(C)=O)N3c3cc(C(F)(F)F)ccc3OC)C[C@H]2C)ccn1` [Compound I-53] the same measures were 0.32 nM, less than 1 nM and greater than 50 µM.
